Results reported in patent US11298403B2, “Therapeutic agent for inflammatory bowel disease” (StemRIM Inc., priority 2017, dated 2022).

Legend:
Assay type in all cases: in vivo, C57BL/6 mice
[1] = test system: IBD model mice (DSS-induced enteritis); test: DSS-induced colitis (IBD) model mice, Example 1: intravenous peptide on 6th and 7th days; body weight and large intestine length; conditions: 9th day of DSS drinking, 5 mg/kg i.v. on 6th and 7th days, n=3
Description: Dextran sulfate sodium (DSS) (molecular weight 5,000 to 6,000, manufactured by Nacalai Tesque, catalog No. 10930-94) was dissolved in water to prepare a 3% (w/v) DSS aqueous solution. A peptide consisting of amino acid residues 1-44 of the human-derived HMGB1 protein (SEQ ID NO: 1) was chemically synthesized by a solid-phase method. Hereinafter, the HMGB1 fragment peptide is referred to as the HMGB1 peptide (1-44) and is expressed as an abbreviation “1-44” in the drawings corresponding to the Examples. […]
(§1) The IBD model mice produced as described above were divided into the HMGB1 peptide (1-44) administration group (n=3) and the control group (n=3). […] Hereinafter, “the Xth day after the start of drinking the DSS aqueous solution” is expressed as an abbreviation “the Xth day of DSS drinking”.
(§2) The body weight of the mice was measured daily from the start of drinking the DSS aqueous solution until the removal of the large intestine. On the 9th day of DSS drinking, the large intestine was excised from the mice, and the length of the large intestine was measured. mRNA was extracted from the terminal part near the anus in the excised large intestine, and the expression level of inflammatory cytokines (TNF-α, IL-1β, and IL-6) was analyzed by quantitative PCR.

TNF-α = test: Example 1: inflammatory cytokine mRNA in large intestine by quantitative PCR (TNF-α); conditions: 9th day of DSS drinking, 5 mg/kg i.v. on 6th and 7th days, FIG. 3
Description: (§3) Colitis was induced in C57BL/6 mice (8 to 10-week-old, male, body weight about 20 g) by allowing them to freely drink the 3% DSS aqueous solution in place of purified water (RO water) (drinking of the DSS aqueous solution was continued until the removal of the large intestine). Mice that were allowed to freely drink purified water (RO water) (hereinafter, referred to as “normal mice”) were used as comparative subjects.
as §1, §2

IL-1β = test: Example 1: inflammatory cytokine mRNA in large intestine by quantitative PCR (IL-1β); conditions: 9th day of DSS drinking, 5 mg/kg i.v. on 6th and 7th days, FIG. 3
Description: as §3, §1, §2

IL-6 = test: Example 1: inflammatory cytokine mRNA in large intestine by quantitative PCR (IL-6); conditions: 9th day of DSS drinking, 5 mg/kg i.v. on 6th and 7th days, FIG. 3
Description: as §3, §1, §2

[2] = test system: IBD model mice (DSS-induced enteritis); test: DSS-induced colitis (IBD) model mice, Example 2: intravenous peptide on 1st, 3rd, 5th and 7th days; body weight, large intestine length, HE staining; conditions: 10th day of DSS drinking, 5 mg/kg i.v. on 1st
Description: as §3
(§4) The DSS aqueous solution and the HMGB1 peptide (1-44) were prepared and the inflammatory bowel disease model mice were produced in the same way as Example 1.
The IBD model mice produced as described in Example 1 were divided into the HMGB1 peptide (1-44) administration group (n=3) and the control group (n=3). The test substance was administered by injecting an HMGB1 peptide (1-44) solution, which has been adjusted to a concentration of 0.5 mg/ml with saline as the vehicle, into the vein at a dose of 200 μl/animal (5 mg/kg as the peptide dose) on the 1st, 3rd, 5th, and 7th days of DSS drinking. In the control group, saline was injected into the vein at a dose of 200 μl/animal on the 1st, 3rd, 5th, and 7th days of DSS drinking. No substance was administered to the normal mice (n=3).
The body weight of the mice was measured daily from the start of drinking the DSS aqueous solution until the removal of the large intestine. On the 10th day of DSS drinking, the large intestine was excised from the mice, and the length of the large intestine was measured. Tissue sections of the cross-section of the intestinal tract were produced using the terminal part near the anus of the excised large intestine, and hematoxylin-eosin (HE) staining was performed.

[3] = test system: IBD model mice (DSS-induced enteritis); test: DSS-induced colitis (IBD) model mice, Example 3: peptide-containing hydrogel embedded on the back; body weight, large intestine length; conditions: 10th day of DSS drinking, MedGel PI5 hydrogel with 20 μl of 5 μg/μl peptide embedded on the back one day before DSS, n=3
Description: as §3, §4
A bioabsorbable hydrogel (MedGel (registered trademark) PI5, manufactured by MedGEL CO., LTD) cut into a size of about 5 mm×5 mm was soaked with 20 μl of an HMGB1 peptide (1-44) solution, which has been adjusted to a concentration of 5 μg/μl with saline as the vehicle, by dripping and allowed to stand under ice-cooling for 30 minutes. The resulting hydrogel was used for embedding in the mice of the HMGB1 peptide (1-44) administration group. […]
The body weight of the mice was measured daily from the start of drinking the DSS aqueous solution until the removal of the large intestine. On the 10th day of DSS drinking, the large intestine was excised from the mice, and the length of the large intestine was measured.

**Q.** With “HMGB1 peptide (1-44): peptide consisting of amino acid residues 1-44 of the human-derived HMGB1 protein (SEQ ID NO: 1), chemically synthesized by a solid-phase method (MGKGDPKKPRGKMSSYAFFVQTCREEHKKKHPDASVNFSEFSKK)” as the substance, how does the “body weight vs control group” value ([1]; FIG. 1) read?
**A.** Its value is “significantly higher than that of the control group”.

**Q.** And the “length of the large intestine vs control group” value (shortened to “length … vs control group”) ([1]; FIG. 2)?
**A.** Its value is “significantly longer than that of the control group”.

**Q.** And the “expression level of TNF-α in the large intestine vs control group” value (TNF-α)?
**A.** The value was “significantly lower than that of the control group”.

**Q.** What about the “expression level of IL-1β in the large intestine vs control group” value (IL-1β) of the same substance?
**A.** Its value is “significantly lower than that of the control group”.

**Q.** What about the “expression level of IL-6 in the large intestine vs control group” value (IL-6) of the same substance?
**A.** The value was “significantly lower than that of the control group”.

**Q.** And the “mucosal tissue damage of the large intestine (HE staining)” value ([2]; FIG. 6)?
**A.** Its value is “damage of the mucosal tissue was suppressed”.

**Q.** What about the “body weight vs control group” value ([2]; n=3, FIG. 4) of the same substance?
**A.** Its value is “significantly higher than that of the control group”.

**Q.** And the “length … vs control group” value ([2]; n=3, FIG. 5)?
**A.** The value was “significantly longer than that of the control group”.

**Q.** What about the “body weight vs control group” value ([3]; FIG. 7) of the same substance?
**A.** The value was “higher than that of the control group”.

**Q.** And the “length … vs control group” value ([3]; FIG. 8)?
**A.** The value was “longer than that of the control group”.
